Results taken from patent publication US9283285B2, “Stable nanocomposition comprising docetaxel, process for the preparation thereof, its use and pharmaceutical compositions containing it” (BBS Nanotechnology Ltd., priority 2013, dated 2016).

System: HeLa cells, A2780 cells
Assay: growth profile of cells by Real Time Analyser (xCELLigence RTCA, Roche)
Format: cell-based, human
Conditions: HeLa and A2780 cells; same concentration of docetaxel; FIG. 2
Source text: FIG. 2A, 2B: HeLa and A2780 measured by Real Time Analyser (Roche). These figures show the growth profile of HeLa cells (A), and A2780 cells (B) after treating with docetaxel drug molecules (D), docetaxel-loaded nanoparticles (NP) and control cells (C). The injected volume contained the same concentration of docetaxel.
The xCELLigence RTCA HT Instrument from Roche Applied Science uses gold electrodes at the bottom surface of microplate wells as sensors to which an alternating current is applied. Cells that are grown as adherent monolayers on top of such electrodes influence the alternating current at the electrodes by changing the electrical resistance (impedance). The degree of this change is primarily determined by the number of cells, strength of the cell-cell interactions, interactions of the cells with the microelectrodes and by the overall morphology of the cells. The RTCA Software calculates the Cell Index (CI) as the relative change in measured impedance to represent cell status. The normalized cell index (NCI—plotted on y axis) is the relative cell impedance presented in the percentage of the value at the base-time. […] NCI increases by rise of cell-number or cell-size. For example NCI value in a culture treated with a proliferation inhibitory drug first can increase (because the cell-size grows) and after decreases (because the cell-number reduces)

With `CC(=O)O[C@@]12CO[C@@H]1C[C@H](O)[C@@]1(C)C(=O)[C@H](O)C3=C(C)[C@@H](OC(=O)[C@H](O)[C@@H](NC(=O)OC(C)(C)C)c4ccccc4)C[C@@](O)([C@@H](OC(=O)c4ccccc4)[C@H]21)C3(C)C` [docetaxel, 1,7β,10β-trihydroxy-9-oxo-5β,20-epoxytax-11-ene-2α,4,13α-triyl 4-acetate 2-benzoate 13-{(2R,3S)-3-[(tert-butoxycarbonyl)amino]-2-hydroxy-3-phenylpropanoate}] the “effect on growth profile (normalized cell index) of tumor cell lines” value was “similar”.
